Reference: ChEMBL document CHEMBL1629655, “Affinity of Tomopenem (CS-023) for penicillin-binding proteins in Staphylococcus aureus, Escherichia coli, and Pseudomonas aeruginosa” (Antimicrob Agents Chemother, 2009)
In brackets after ≈: the same amount, converted by molar mass. Activity calls are given as the source filed them. The rule behind the calls is not given here.

Columns and labels:
[1] = tested on: Staphylococcus aureus; test: Antibacterial activity against Staphylococcus aureus ATCC 6538P by microdilution method; type: functional, organism-based
[2] = Displacement of [14C]benzylpenicillin from PBP1B in Escherichia coli NIHJ
[3] = tested on: Pseudomonas aeruginosa; test: Antibacterial activity against Pseudomonas aeruginosa ATCC 15692 by microdilution method; type: functional, organism-based
[4] = tested on: Staphylococcus aureus; test: Ratio of MIC for Staphylococcus aureus SRR2a to MIC for Staphylococcus aureus ATCC 6538P; type: functional
[5] = tested on: Staphylococcus aureus; test: Ratio of MIC for Staphylococcus aureus SIR2a selected at 2 times MIC of imipenem to MIC for Staphylococcus aureus ATCC 6538P; type: functional
[6] = Displacement of [14C]benzylpenicillin from PBP1 in Staphylococcus aureus ATCC 6538P
[7] = tested on: Escherichia coli; test: Ratio of MIC for Escherichia coli EIR4a to MIC for Escherichia coli NIHJ; type: functional
[8] = Displacement of [14C]benzylpenicillin from PBP4 in Pseudomonas aeruginosa ATCC 15692
[9] = tested on: Escherichia coli; test: Antibacterial activity against Escherichia coli NIHJ assessed as appearance of spherical and bulge cells at 8 times MIC by Scanning electron microscopy; type: functional, organism-based
[10] = Displacement of [14C]benzylpenicillin from PBP6 Escherichia coli NIHJ
[11] = tested on: Staphylococcus aureus; test: Antibacterial activity against Staphylococcus aureus SIR2a selected at 2 times MIC of imipenem by microdilution method; type: functional
[12] = tested on: Escherichia coli; test: Antibacterial activity against Escherichia coli NIHJ by microdilution method; type: functional, organism-based
[13] = tested on: Pseudomonas aeruginosa; test: Antibacterial activity against Pseudomonas aeruginosa ATCC 15692 assessed as filamentation of cells at 0.125 times MIC by scanning electron microscopy; type: functional, organism-based
[14] = tested on: Escherichia coli; test: Antibacterial activity against Escherichia coli ERR2a selected at 2 times MIC of tomopenem by microdilution method; type: functional
[15] = tested on: Escherichia coli; test: Ratio of MIC for Escherichia coli EMR2a to MIC for Escherichia coli NIHJ; type: functional
[16] = tested on: Staphylococcus aureus; test: Antibacterial activity against Staphylococcus aureus ATCC 6538P assessed as fold decrease in compound susceptibility after 10 passages relative to control; type: functional
[17] = tested on: Escherichia coli; test: Antibacterial activity against Escherichia coli EIR4b selected at 4 times MIC of imipenem by microdilution method; type: functional
[18] = tested on: Escherichia coli; test: Antibacterial activity against Escherichia coli EIR8a selected at 8 times MIC of imipenem by microdilution method; type: functional
[19] = tested on: Pseudomonas aeruginosa; test: Ratio of MIC for Pseudomonas aeruginosa PMR2a to MIC for Pseudomonas aeruginosa ATCC 15692; type: functional
[20] = tested on: Escherichia coli; test: Antibacterial activity against Escherichia coli ERR4a selected at 4 times MIC of tomopenem by microdilution method; type: functional
[21] = tested on: Staphylococcus aureus; test: Antibacterial activity against methicillin-resistant Staphylococcus aureus by microdilution method; type: functional
[22] = tested on: Pseudomonas aeruginosa; test: Antibacterial activity against Pseudomonas aeruginosa PIR2a selected at 2 times MIC of imipenem by microdilution method; type: functional
[23] = tested on: Escherichia coli; test: Ratio of MIC for Escherichia coli EIR2b to MIC for Escherichia coli NIHJ; type: functional
[24] = tested on: Escherichia coli; test: Ratio of MIC for Escherichia coli ERR4a to MIC for Escherichia coli NIHJ; type: functional
[25] = tested on: Pseudomonas aeruginosa; test: Ratio of MIC for Pseudomonas aeruginosa PRR4a to MIC for Pseudomonas aeruginosa ATCC 15692; type: functional
[26] = Displacement of [14C]benzylpenicillin from PBP3 in Pseudomonas aeruginosa ATCC 15692
[27] = tested on: Staphylococcus aureus; test: Antibacterial activity against methicillin-sensitive Staphylococcus aureus by microdilution method; type: functional
[28] = Displacement of [14C]benzylpenicillin from PBP5 in Escherichia coli NIHJ
[29] = tested on: Escherichia coli; test: Antibacterial activity against Escherichia coli EMR2a selected at 2 times MIC of meropenem by microdilution method; type: functional
[30] = tested on: Pseudomonas aeruginosa; test: Antibacterial activity against Pseudomonas aeruginosa PMR2a selected at 2 times MIC of meropenem by microdilution method; type: functional
[31] = tested on: Pseudomonas aeruginosa; test: Ratio of MIC for Pseudomonas aeruginosa PIR2a to MIC for Pseudomonas aeruginosa ATCC 15692; type: functional
[32] = tested on: Escherichia coli; test: Ratio of MIC for Escherichia coli EIR4b to MIC for Escherichia coli NIHJ; type: functional
[33] = tested on: Escherichia coli; test: Antibacterial activity against Escherichia coli ERR2b selected at 2 times MIC of tomopenem by microdilution method; type: functional
[34] = tested on: Escherichia coli; test: Antibacterial activity against Escherichia coli ERR8a selected at 8 times MIC of tomopenem by microdilution method; type: functional
[35] = tested on: Staphylococcus aureus; test: Antibacterial activity against Staphylococcus aureus SRR2a selected at 2 times MIC of tomopenem by microdilution method; type: functional
[36] = tested on: Escherichia coli; test: Antibacterial activity against Escherichia coli EIR2b selected at 2 times MIC of imipenem by microdilution method; type: functional
[37] = Displacement of [14C]benzylpenicillin from PBP3 in Staphylococcus aureus ATCC 6538P
[38] = tested on: Escherichia coli; test: Antibacterial activity against Escherichia coli NIHJ assessed as appearance of swollen cells at 1/8 times MIC by Scanning electron microscopy; type: functional, organism-based
[39] = tested on: Escherichia coli; test: Ratio of MIC for Escherichia coli EIR2a to MIC for Escherichia coli NIHJ; type: functional
[40] = tested on: Staphylococcus aureus; test: Ratio of MIC for Staphylococcus aureus SMR2a to MIC for Staphylococcus aureus ATCC 6538P; type: functional
[41] = tested on: Escherichia coli; test: Ratio of MIC for Escherichia coli EIR8a to MIC for Escherichia coli NIHJ; type: functional
[42] = Displacement of [14C]benzylpenicillin from PBP3 in Escherichia coli NIHJ
[43] = tested on: Staphylococcus aureus; test: Ratio of MIC for Staphylococcus aureus SMR4a to MIC for Staphylococcus aureus ATCC 6538P; type: functional
[44] = Displacement of [14C]benzylpenicillin from PBP 5 in Pseudomonas aeruginosa ATCC 15692
[45] = Displacement of [14C]benzylpenicillin from PBP1A in Escherichia coli NIHJ
[46] = Displacement of [14C]benzylpenicillin from PBP2 Staphylococcus aureus ATCC 6538P
[47] = Displacement of [14C]benzylpenicillin from PBP4 in Escherichia coli NIHJ
[48] = tested on: Pseudomonas aeruginosa; test: Antibacterial activity against Pseudomonas aeruginosa ATCC 15692 assessed as appearance of bulge cells at MIC by Scanning electron microscopy; type: functional, organism-based
[49] = tested on: Escherichia coli; test: Ratio of MIC for Escherichia coli ERR2a selected to MIC for Escherichia coli NIHJ; type: functional
[50] = Displacement of [14C]benzylpenicillin from PBP2 in Pseudomonas aeruginosa ATCC 15692
[51] = tested on: Pseudomonas aeruginosa; test: Antibacterial activity against Pseudomonas aeruginosa ATCC 15692 assessed as fold decrease in compound susceptibility after 10 passages relative to control; type: functional
[52] = tested on: Escherichia coli; test: Ratio of MIC for Escherichia coli ERR8a to MIC for Escherichia coli NIHJ; type: functional
[53] = Displacement of [14C]benzylpenicillin from PBP1A in Pseudomonas aeruginosa ATCC 15692
[54] = tested on: Escherichia coli; test: Antibacterial activity against Escherichia coli EIR4a selected at 4 times MIC of imipenem by microdilution method; type: functional
[55] = Displacement of [14C]benzylpenicillin from PBP4 in Staphylococcus aureus ATCC 6538P
[56] = tested on: Pseudomonas aeruginosa; test: Antibacterial activity against Pseudomonas aeruginosa PRR4a selected at 4 times MIC of tomopenem by microdilution method; type: functional
[57] = Displacement of [14C]benzylpenicillin from PBP2 in Escherichia coli NIHJ
[58] = tested on: Escherichia coli; test: Antibacterial activity against Escherichia coli EIR2a selected at 2 times MIC of imipenem by microdilution method; type: functional
[59] = tested on: Escherichia coli; test: Ratio of MIC for Escherichia coli ERR2b to MIC for Escherichia coli NIHJ; type: functional
[60] = tested on: Staphylococcus aureus; test: Antibacterial activity against Staphylococcus aureus SMR2a selected at 2 times MIC of meropenem by microdilution method; type: functional
[61] = tested on: Staphylococcus aureus; test: Antibacterial activity against Staphylococcus aureus SMR4a […] MIC of meropenem by microdilution method; type: functional
[62] = Displacement of [14C]benzylpenicillin from PBP1B in Pseudomonas aeruginosa ATCC 15692
[63] = Displacement of [14C]benzylpenicillin from PBP 6 in Pseudomonas aeruginosa ATCC 15692

For C[C@@H](O)[C@H]1C(=O)N2C(C(=O)O)=C(S[C@H]3C[C@@H](C(=O)N4CC[C@H](NC(=O)CNC(=N)N)C4)N(C)C3)[C@H](C)[C@H]12 [TOMOPENEM], the IC50 [1] was 0.06 µg/mL (≈ 0.112 µM), the MBC [1] was 0.06 µg/mL (≈ 0.112 µM) and the MIC [1] was 0.06 µg/mL (≈ 0.112 µM). It also gave an IC50 [2] of 1.3 µg/mL (≈ 2.42 µM), an MBC [3] of 0.5 µg/mL (≈ 0.93 µM) and an MIC [3] of 0.5 µg/mL (≈ 0.93 µM). The Ratio MIC [4] was 4, the Ratio MIC [5] was 4 and the IC50 [6] was 0.16 µg/mL (≈ 0.298 µM). For the same molecule, the Ratio MIC [7] was 2, the IC50 [8] was 0.0035 µg/mL (≈ 0.00651 µM) and the Activity [9] was “Active”. The IC50 [10] was 31 µg/mL (≈ 57.7 µM), the MIC [11] was 0.25 µg/mL and the MBC [12] was 0.03 µg/mL (≈ 0.0558 µM). The MIC [12] was 0.03 µg/mL (≈ 0.0558 µM), the Activity [13] was “Active” and the MIC [14] was 0.12 µg/mL. The Ratio MIC [15] was 2, the “fold change (FC)” value [16] was 2 and the MIC [17] was 0.06 µg/mL. The MIC [18] was 0.06 µg/mL, the Ratio MIC [19] was 8 and the MIC [20] was 0.12 µg/mL. For the same molecule, the MIC50 [21] was 4 µg/mL (≈ 7.44 µM), the MIC90 [21] was 8 µg/mL (≈ 14.9 µM) and the MIC [22] was 2 µg/mL. It also gave a Ratio MIC [23] of 2, a Ratio MIC [24] of 4 and a Ratio MIC [25] of 32. The IC50 [26] was 0.011 µg/mL (≈ 0.0205 µM), the MIC50 [27] was 0.12 µg/mL (≈ 0.223 µM) and the MIC90 [27] was 0.12 µg/mL (≈ 0.223 µM). For the same molecule, the IC50 [28] was 5.7 µg/mL (≈ 10.6 µM), the MIC [29] was 0.06 µg/mL and the MIC [30] was 2 µg/mL. For the same molecule, the Ratio MIC [31] was 8, the Ratio MIC [32] was 2 and the MIC [33] was 0.12 µg/mL. It also gave an MIC [34] of 0.12 µg/mL, an MIC [35] of 0.25 µg/mL and an MIC [36] of 0.06 µg/mL. The IC50 [37] was over 32 µg/mL, the Activity [38] was “Active” and the Ratio MIC [39] was 2. The Ratio MIC [40] was 4, the Ratio MIC [41] was 2 and the IC50 [42] was 0.71 µg/mL (≈ 1.32 µM). For the same molecule, the ratio [43] was 8, the IC50 [44] was 5 µg/mL (≈ 9.3 µM) and the IC50 [45] was 1.2 µg/mL (≈ 2.23 µM). For the same molecule, the IC50 [46] was 0.21 µg/mL (≈ 0.391 µM), the IC50 [47] was over 32 µg/mL and the Activity [48] was “Active”. For the same molecule, the Ratio MIC [49] was 4, the IC50 [50] was 0.011 µg/mL (≈ 0.0205 µM) and the “fold change (FC)” value [51] was 8. For the same molecule, the Ratio MIC [52] was 4, the IC50 [53] was 0.061 µg/mL (≈ 0.113 µM) and the MIC [54] was 0.06 µg/mL. The IC50 [55] was 0.094 µg/mL (≈ 0.175 µM), the MIC [56] was 8 µg/mL and the IC50 [57] was 0.017 µg/mL (≈ 0.0316 µM). The MIC [58] was 0.06 µg/mL, the Ratio MIC [59] was 4 and the MIC [60] was 0.25 µg/mL. For the same molecule, the MIC [61] was 0.5 µg/mL, the IC50 [62] was 0.053 µg/mL (≈ 0.0986 µM) and the IC50 [63] was 5 µg/mL (≈ 9.3 µM).
